1 substance from patent US9388468B2, “Truncated CD20 protein, deltaCD20” (ETABLISSEMENT FRANCAIS DU SANG (EFS), priority 2008, dated 2016) can be followed below.

The experiment has as its system RMAS-HHD cells. Nature of the experiment: T cytotoxic response (CTL) induction by peptide vaccination, 51Cr release specific lysis. The class given is in vivo. The procedure: The immunogenicity of the ΔCD20a peptides was evaluated by generating CTL on HLA-A2/DR1 and Knock-Out (KO) transgenic mice for H-2 class I and II.
The mice (4 per group) are immunised with pools of 2 or 3 peptides (2 injections at the base of the tail at an 8-day interval) with: 50 μg of each peptide, 100 μg of helper peptide (20 mers peptide from CMV-specific pp65), the whole co-emulsified with incomplete Freud adjuvant.
Seven days after the second immunisation, the spleens of the mice are removed and the splenocytes are re-stimulated in vitro with 4 μg/ml of each peptide separately. On the fifth day of culture, the respondent populations are tested to determine specific cytotoxicity. The cells, with conclusive cytotoxicity, are re-stimulated in vitro at one-week intervals to obtain specific CTLs.
RMAS-HHD cells are used as targets to study cytotoxicity. These target cells are filled with 10 μg/ml of the peptide under test, or a non-relevant control peptide, at 37° C. for 90 minutes and labelled with 100 μCi of 51Cr for 90 minutes, and washed three times. […] After incubation, 50 μl of supernatant is collected, transferred into specific plates (Lumaplate) and the radioactivity is measured in a γ counter. The specific lysis percentage is calculated using the formula: [(experimental 51 Cr release−spontaneous 51 Cr release)/(maximum 51 Cr release−spontaneous 51 Cr release)]×100.

For the substance “peptide No. 4: ΔCD20-specific peptide overlapping the alternative splicing junction zone, restricted for HLA-A*0201; probably SEQ ID NO: 9 (RMSSLELVI)”, the “mice that developed T cytotoxic response against the peptide” value (immunisation group A, 4 mice per group, 2 injections of 50 μg of each peptide, splenocytes re-stimulated in vitro) was “Three out of 4”. Also, the “CTLs generated by immunisation killing peptide-charged RMAS-HHD targets” value (targets charged with 10 μg/ml peptide, not cells charged with non-relevant peptide) is “generates CTLs killing RMAS-HHD targets charged with said peptide”.
